One assay concerns the target T1, mCAR (Mus musculus, UniProt O35627).
T1 construct: expressed in transfected cells; host or cells: monkey kidney CV-1 cells and human hepatoma HepG2 cells
T1 sequence (O35627 1-358): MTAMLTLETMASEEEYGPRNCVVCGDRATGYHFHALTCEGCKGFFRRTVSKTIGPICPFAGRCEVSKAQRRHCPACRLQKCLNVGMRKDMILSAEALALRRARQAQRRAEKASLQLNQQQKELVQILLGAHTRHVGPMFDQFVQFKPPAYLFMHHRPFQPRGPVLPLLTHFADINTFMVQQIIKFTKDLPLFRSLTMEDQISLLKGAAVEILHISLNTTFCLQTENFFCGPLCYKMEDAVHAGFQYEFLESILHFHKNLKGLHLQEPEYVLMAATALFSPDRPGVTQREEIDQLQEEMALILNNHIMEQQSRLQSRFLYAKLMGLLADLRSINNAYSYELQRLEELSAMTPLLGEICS
The assay is described as follows: Transactivation assays of human ALAS1 fragments with mCAR in CV-1 and HepG2 cells. It counts as cell-based. On the procedure: In transactivation assays in a heterologous cell line (monkey kidney CV-1 cells) and human hepatoma HepG2 cells, we assessed which nuclear receptor conveys the observed activation. The two candidate receptors pregnane X receptor (PXR) and constitutive androstane receptor (CAR) were tested on these fragments.

A further assay deals with ALAS1 mRNA. The assay is described as follows: ALAS1 mRNA quantification (Taqman real-time PCR) in LMH cells. Format: cell-based, chicken. On the procedure: We next wanted to compare ADRES-mediated ALAS1 induction levels from reporter gene assays with stimulation of transcription in a physiological system. […] In addition, the common CYP3A inducers dexamethasone (50 μM), metyrapone (400 μM), and 10 μM mifepristone (RU-486) were employed for comparison. We were also interested in the effects of […] 5-pregnen-3β-ol-20-one-16α-carbonitrile (PCN) and rifampicin (100 μM) due to their species-specific effects on PXR activation and CYP3A induction. Messenger RNA was reverse transcribed and levels of ALAS1 cDNA were quantified using the Taqman real-time PCR quantification system as described in Materials and Methods. […] This value was chosen to represent 100% induction, against which all other values are compared.
LMH cells were plated onto 12-well plates, expanded to 70-80% surface density and incubated in serum-free media for 24 h. Cells were then exposed to either drug or vehicle and RNA was isolated with Trizol reagent (Gibco BRL) according to the manufacturer protocol. One μg of total RNA was reverse transcribed with the Moloney murine leukemia virus reverse transcriptase kit (Roche Molecular Biochemicals). PCR was performed using the Taqman PCR core reagent kit (PE Applied Biosystems) and transcript levels quantitated with an ABI Prism 7700 sequence detection system (PE Applied Biosystems). Relative transcript levels were determined using the relative quantitation method measuring the ΔΔCt. The following primers and probes were used in these reactions. […] Transcript levels were measured in separate tubes and GAPDH values were used for normalization of ALAS1 values.

In assay [1] the test system is human ALAS1 gene fragments (hA795, hA174, hA8, hA240). Put plainly: Luciferase reporter gene assay of human ALAS1 fragments in LMH cells. The conditions noted are these: 24 h, 400 μM PB or 250 μM PIA. It counts as cell-based. The method, then:
Fragments were cloned into the pGL3 luciferase reporter vector (Promega Corp) and tested for inducibility by the prototypical HALAS1 inducers phenobarbital (PB) and propylisopropylacetamid (PIA). Four hours after transfection of LMH cells with the constructs, cells were exposed to the drugs for 24 hours, after which luciferase activity was assayed. Results were normalized for transfection efficiency by assaying for activity of co-transfected β-galactosidase. Data shown is one representative experiment (FIG. 11).
We investigated in more detail the contribution of various response element half-sites to drug-induction mediated by this element. Within the hA174 element, an arrangement of three nuclear receptor response element half-sites was found, which lead: to the prediction of a DR-4 type, as well as a DR-5 type response element (of. FIG. 18A). By site-directed mutagenesis, we examined the involvement of each of these half-sites to drug induction. In the context of the 2xhA174 reporter construct, each single half-site was mutated in both copies of the hA174 element. The wild-type and mutant constructs were subsequently tested for reporter gene activation in LMH cells as described above. Cells were induced with 400 μM phenobarbital (PB) or 250 μM propylisopropylacetamid (PIA). As a control, vehicle alone (0.1% DMSO) was added to the cells. After 24 hours, luciferase activity was assayed and normalized against co-transfected β-galactosidase activity in order to compensate for transfection efficiency. […] From this, we conclude that the DR-4 element, consisting of the HS1 and HS2 half-sites, is essential for drug induction. The change in induction observed by mutagenesis of the HS3 half-site may indicate a modulatory role for the half-site alone or as a DR-5 in combination with HS2 in drug induction. Data shown are the mean+1SD of three independent experiments.
In order to define a core sequence retaining inducibility, the hA8 fragment (Seq. Id. No. 10), which carries PCR-introduced KpnI and XhoI restriction sites at its ends, was digested with SacI and NsiI. The resulting four fragments, a 100 bp KpnI/SacI fragment, a 374 bp SacI/NsiI fragment, a 240 bp NsiI/NsiI fragment, and a 231 bp NsiI/XhoI fragment, were cloned into a reporter gene vector and subsequently tested for drug induction in LMH cells. Of these fragments, only the 240 bp fragment (called hA240) (Seq. Id. No. 39) was able to convey transcriptional activation in response to drugs. Within the core hA240 fragment, we then mutated both half-sites of a predicted DR-4 element (cf. FIG. 18B) and observed the effect of this mutation on drug induction (240mutDR4). Alteration of the DR4 element half-sites abolished drug induction in LMH cell reporter gene assays. […]
(In general: Reporter assays use an easily measured gene product as a stand-in for the process of interest.)

For assay [2], the system named is chicken ALAS1 drug responsive enhancer sequence (ADRES) elements. Put plainly: Luciferase reporter gene assay of chicken ALAS1 5'-flanking fragments / ADRES elements in transfected LMH cells. Format: cell-based. The conditions noted are these: for ADRES activation in reporter assays: PIA 250 μM, glutethimide 500 μM, metyrapone 400 μM, dexamethasone 50 μM, RU-486 10 μM, rifampicin 100 μM, TCPOBOP 10 μM, compared with PB 600 μM. The method, then:
The constructs were transfected together with a transfection-control construct expressing β-galactosidase into LMH cells. Cells were then treated with 600 μM PB for 16 h and luciferase assays were performed on the cell extracts. Relative luciferase levels are standardized against cells transfected with vector containing no insert and expressed as fold induction. Experiments were repeated at least three times and data from a representative experiment tested in triplicate are shown here. Error bars represent standard deviations;
Three major subclones were generated from the region upstream of the transcriptional start site, including a 3282 bp SmaI fragment and 5056 bp and 7973 bp EcoRI segments (FIG. 1A). The SmaI clone extends from −167 bp to −3449 bp, whereas the EcoRI subfragments span the regions from −2347 bp to −7402 bp and −7403 bp to −15376 bp, respectively. These subfragments were cloned into the pLucMCS modified luciferase vector containing an SV40 promoter as described in Materials and Methods. Drug inducibility was measured in transiently transfected LMH cells treated with 600 μM PB and compared with control values. […]
The modified enhancers were examined for response to 600 μM PB in luciferase reporter gene assays and the results are presented in FIG. 3.
Leghorn Male Hepatoma (LMH) cells were obtained from the American Type Culture Collection and cultivated in 10 cm dishes in Williams E medium supplemented with 10% FCS, 1% glutamine (2 mM) and 1% penicillin/streptomycin (50 IU/ml). Dishes coated with 0.1% gelatin were used for routine culture of LMH cells in order to facilitate proper seating of the cells onto the plastic plate surface.

For another assay, the system named is mouse 369 bp DRES. The assay is described as follows: Luciferase reporter gene assay of mouse ALAS1 fragments / 369 bp DRES in LMH cells. It counts as cell-based. The conditions noted are these: metyrapone 500 μM, glutethimide 500 μM, PIA 250 μM. On the procedure:
A 175 bp fragment (441 to 615) (Seq. Id. No. 3) was isolated by digesting the 2.6 kb fragment with SacI/XbaI. All fragments were subcloned in the pGL3LUCpro+MCS vector and the resulting constructs tested for inducibility in LMH reporter gene assay (FIG. 6). […] The 369 bp fragment was termed Drug responsive enhancer sequence DRES.
To compare the 369 bp DRES to other inducible fragments, a series of different drugs was used as inducers: clothrimazole (Clo, 10 μM), dexamethasone (Dex, 50 μM), glutethimide (GE, 500 μM), metyrapone (Met, 500 μM), phenobarbital (PB, 500 μM), PCN (10 μM), propylisopropylacetamide (PIA, 250 μM), rifampicin (Rif, 10 μM), RU486 (10 μM), TCPOBOP (10 μM).
Data shown is from two independent experiments.

The target in the next assay is T2, mouse CAR (Mus musculus, UniProt O35627).
T2 construct: expressed in transfected cells; host or cells: CV-1 cells, pSG5 expression vector
T2 sequence (O35627 1-358): T1 sequence (O35627 1-358)
The assay is described as follows: Transactivation of 369 bp ADRES by mouse CAR in CV-1 cells (CAT reporter). It counts as cell-based. The note with it: TCPOBOP, 16 h. The method, then:
To test the effects of the mutations on transcriptional activation, transactivations in CV-1 cells with mouse PXR and mouse CAR and their respective inducers PCN and TCPOBOP, were performed (FIG. 14). The inducible DNA constructs were subcloned into the CAT5 reporter vector and tested for their ability to be transactivated by nuclear receptor transcription factors in CV-1 cells. Mouse PXR (A) and mouse CAR (B) coding regions cloned into the pSG5 expression vector were cotransfected along with a vector expressing pSV β-galactosidase as control. Cells were then treated for 16 h with either drugs (A, PCN; B, TCPOBOP) or vehicle control and cell extracts were analyzed for CAT expression normalized against β-galactosidase levels. Experiments were repeated at least three times and error bars represent standard deviations.

Where two headings read alike, the source gives them in different places.

With `C[C@]12CC[C@@H](O)C[C@@H]1CC[C@@H]1[C@@H]2CC[C@]2(C)C=CC[C@@H]12` [3α-androstenol], the “mCAR induced activity remaining after repression” value on mCAR (human ALAS1 fragments hA795, hA8, hA174, inverse agonist) is “approximately 50%”.
In the case of `CCC1(c2ccccc2)C(=O)NC(=O)NC1=O.[Na]` [PB, 5-ethyl-5-phenyl-barbituric acid sodium salt], in the assay with ALAS1 mRNA, the “ALAS1 RNA levels relative to basal transcript levels” value came to 16 fold and the “effect on ALAS1 mRNA levels” value is recorded as “strong inducer”. Moreover, in assay [1], the “inducibility of 2xhA174, HS1 or HS2 half-site mutated” value was “abolishment of inducibility” and the “induction of 2xhA174, HS3 half-site altered” value was “merely reduces induction levels”. Besides, in assay [2] (600 μM PB, LMH cells), the “PB response of 167 bp ADRES diminished by DR4-3 mutation” value came out at 75%; the “activation of 167 bp ADRES, DR4-2 mutant” value worked out at 5.4 fold; the “activation of 176 bp ADRES, DR4-1 mutant” value is recorded as 16 fold; the “activation of 176 bp ADRES, DR5 mutant” value is 6.4 fold. Also, in assay [2] (600 μM PB, LMH cells), the “activation of wild type 167 bp ADRES” value was found to be 60 fold; the “activation of wild type 176 bp ADRES” value came to 44 fold; the “induction of 167 bp ADRES, DR4-3 mutant” value came out at 15 fold; the “limitation of 176 bp ADRES activation by DR4-1 mutation” value was “over 60%”. In assay [2] (600 μM PB, LMH cells), the “reduction of 176 bp ADRES activity by DR5 mutation” value is reported as “over 85%” and the “reduction of PB response of 167 bp ADRES by DR4-2 alteration” value was “over 90%”. In addition, the “induction over control values, 176 bp and 167 bp elements” value in assay [2] (LMH cells exposed to PB) is given as 25-60 fold. Besides, in assay [2] (LMH cells, 600 μM PB), the “transcriptional activation in response to drug treatment, 5056 bp and 3282 bp subfragments” value was “virtually no transcriptional activation”. Moreover, in assay [2] (LMH cells, 600 μM PB, 16 h), the “increase in transcriptional activation relative to control values, 7973 bp subfragment” value is listed as 28 fold. For the same compound, the “activation of the 167 bp element compared to the 176 bp element” value in assay [2] (PB 600 μM, LMH cells) is listed as “twice the activation”.
Take `CCCC(C(N)=O)C(C)C` (stereo not drawn) [PIA, Propylisopropylacetamide]: the “induction of the 369 bp DRES, ranking of drugs” value in the assay on mouse 369 bp DRES was “strongest inducer”. In addition, in assay [1], the “inducibility of 2xhA174, HS1 or HS2 half-site mutated” value is “abolishment of inducibility” and the “induction of 2xhA174, HS3 half-site altered” value was “merely reduces induction levels”. For the same compound, the “ADRES activation in reporter assays” value in assay [2] (LMH cells, 16 h) is reported as “in excess of levels obtained from PB treatment”.
On to `Clc1cnc(Oc2ccc(Oc3ncc(Cl)cc3Cl)cc2)c(Cl)c1` [TCPOBOP, 1,4-Bis[2-(3,5-dichloropyridyloxy)]benzene], for which the “effect on ALAS1 mRNA levels” value in the assay on ALAS1 mRNA (LMH cells, 16 h, PB 600 μM, dexamethasone 50 μM, RU-486 10 μM, rifampicin 100 μM, TCPOBOP 10 μM) is “no response”. Further, on mouse CAR, the “induction capacity, DR4-1,2/hs1,2 quadruple mutant” value is given as “completely eliminated”; the “induction exceeding basal levels, DR4-2/hs1 construct” value is 1.4 fold; the “induction, DR4-2/hs2 construct or DR4-2 double mutant” value was “no induction was observed”; the “response, DR4-1 single and double mutants” value was “did not exhibit any response”. Further, the “reversal of 3α-androstenol repression of mCAR induced activity” value at mCAR (human ALAS1 fragments, direct agonist) is given as “reversible”. For the same compound, the “ADRES activation in reporter assays” value in assay [2] (LMH cells, 16 h) is given as “no response”.

Source of the values: US20050118601A1, “Enhancer sequence of the 5-aminolevulinic acid synthase gene” (priority 2002, published 2005).
